US7354955B2, “(2S)-amino(phenyl)acetic acid and derivatives as α2δ voltage-gated calcium channel ligands” (Abbott Laboratories, priority 2004, dated 2008)
Like-named read-outs stand apart in the source and are kept apart here.

How the values were obtained:
[1] = test system: mechanical allodynia in rats that had undergone spinal nerve ligation; assay: Analgesic effect: mechanical allodynia (von Frey) after L5/L6 spinal nerve ligation; details: oral, 60 minutes before von Frey testing; percentage of maximal protective effect relative to vehicle; Sprague Dawley rats
gabapentin binding site = details: cited from earlier work
[2] = anti-convulsant drugs, background statement

N[C@H](C(=O)O)c1ccccc1 [(2S)-amino(phenyl)acetic acid]
EC50 [1]: 50 µmol/kg

COc1cc(CNC(=O)CCCC/C=C/C(C)C)ccc1O [capsaisin]
interaction with the gabapentin binding site (gabapentin binding site): do not interact

CN1C(=O)CN=C(c2ccccc2)c2cc(Cl)ccc21 [diazepam]
competition for gabapentin binding (gabapentin binding site): do not compete

NC(=O)N1c2ccccc2C=Cc2ccccc21 [carbamazepine]
competition for gabapentin binding (gabapentin binding site; [2]): do not compete

O=C1NC(=O)C(c2ccccc2)(c2ccccc2)N1 [phenytoin]
competition for gabapentin binding (gabapentin binding site; [2]): do not compete

ryanodine
interaction with the gabapentin binding site (gabapentin binding site): do not interact

CCC1(c2ccccc2)C(=O)NC(=O)NC1=O [phenobarbitone]
competition for gabapentin binding (gabapentin binding site): do not compete

C[C@]12N[C@H](Cc3ccccc31)c1ccccc12 [MK801]
interaction with the gabapentin binding site (gabapentin binding site): do not interact

COc1ccc(CCN(C)CCCC(C#N)(c2ccc(OC)c(OC)c2)C(C)C)cc1OC (centres unmarked) [verapamil]
interaction with the gabapentin binding site (gabapentin binding site): do not interact

Cn1c(=O)c2c(ncn2C)n(C)c1=O [caffeine]
interaction with the gabapentin binding site (gabapentin binding site; ligands for other calcium channel subtypes, background statement): do not interact

NCC1(CC(=O)O)CCCCC1 [Gabapentin]
EC50 [1]: 160 µmol/kg
